# Reference: US20040214796A1, “Novel therapeutic application of enoxaparin” (AVENTIS PHARMA S.A., priority 2000, published 2004)
# Marks after values point to notes of the source that are not given here.
# Experiments:
# [1] = test system: cerebral ischemia; assay: Transient focal cerebral ischemia in rats (2 h clamp of left middle cerebral artery plus carotid ligation, then reperfusion), Studies 1-3; format: in vivo, rat (male Sprague Dawley); conditions: for reduction of the cortical lesion: vs control group; for CORTICAL LESION: mean ± S.E.M.
# Experimental: Male Sprague Dawley rats (230-250 g Iffa Credo) are fed and watered ad libitum and kept in a light-dark cycle of 12 hours. Surgery was carried out under halothane (1.4% in a mixture of 70% N2O/30% O2). During anesthesia, normothermia is maintained by placing the rat under a thermostated cover. The left common carotid artery is isolated and a loose ligature is put in place. The left middle cerebral artery is exposed via a subtemporal craniotomy and a microclamp is placed in the proximal region of the artery, immediately followed by the ligation of the carotid artery. Two hours later, the animals are reanesthetized and the cerebral circulation is reestablished by removing the clamp from the middle cerebral artery and the ligature from the carotid artery. The rats are then placed in their cage in a thermostated room at 26-28° C. 48 hours after the surgery, a neurological examination is carried out for each rat by an examiner unaware of the treatment. The neurological scale used is described in Table 1. [table] After the neurological examination, the rats are humanely killed and their brains removed. 1.5 mm thick serial sections are prepared and stained with 2,3,5-triphenyltetrazolium chloride (TTC) at 2%. After 24 hours of post-fixing in a 10% formaldehyde solution, the lesion areas (cerebral infarct) are measured at the cortical and striatal levels; the volumes are calculated by integrating the lesioned surface areas. The values are expressed in mm^3 (mean ±S.E.M). Statistical analysis was carried out by a Mann-Whitney test or by a Kruskal-Wallis test for non-parametric variance analysis followed by a Dunn test for comparison between groups (*:p<0.05, **:p<0.01, ***:p<0.001 vs control group). In Study 1, enoxaparin is administered to 12 rats at 1.5 mg/kg iv, 2 hours and 24 hours after the onset of the ischemia. A control group of 10 rats receives only the vehicle (physiological solution of sodium chloride at 0.9%) following the same protocol. In Study 2, the therapeutic window of opportunity for enoxaparin is explored. The treatment starts 5 hours after the ischemia followed by a second administration at 24 hours. This study consists in an enoxaparin dose-effect on the cerebral lesions. The doses studied are 0.5:1 and 1.5 mg/kg iv (9-10 rats per group). A control group of 11 rats receives only the vehicle (physiological solution of sodium chloride at 0.9%). In Study 3, enoxaparin is administered to 10 rats at 1.5 mg/kg iv, 5 and 24 hours after the onset of the ischemia. The control group of 13 rats receives only the vehicle (physiological solution of sodium chloride at 0.9%).
# [2] = test system: cerebral ischemia; assay: Permanent focal cerebral ischemia in rats (left middle cerebral artery permanently cauterized, no carotid occlusion), Study 4; format: in vivo, rat (male Sprague Dawley); conditions: Study 4 (permanent occlusion), 2 × 1.5 mg/kg iv
substance,measurement,setting,value
Enoxaparin,reduction of the cortical lesion,"[1]; Study 1, 2 × 1.5 mg/kg iv, 2 h and 24 h",30%
same,CORTICAL LESION,"[1]; Study 1, 2 × 1.5 mg/kg iv, 2 h and 24 h after onset of ischemia, measured 48 h after surgery",131 ± 13* mm^3
same,CORTICAL LESION,"[1]; Study 2, 2 × 0.5 mg/kg iv, 5 h and 24 h after ischemia",164 ± 15 mm^3
same,reduction of the cortical lesion,"[1]; Study 2, 2×1 mg/kg iv, 5 h and 24 h",30%
same,CORTICAL LESION,"[1]; Study 2, 2 × 1 mg/kg iv, 5 h and 24 h after ischemia",142 ± 24* mm^3
same,reduction of the cortical lesion,"[1]; Study 2, 2×1.5 mg/kg iv, 5 h and 24 h",36%
same,CORTICAL LESION,"[1]; Study 2, 2 × 1.5 mg/kg iv, 5 h and 24 h after ischemia",129 ± 17* mm^3
same,reduction of the cortical lesion,"[1]; Study 3, 2 × 1.5 mg/kg iv, 5 h and 24 h",34%
same,CORTICAL LESION,"[1]; Study 3, 2 × 1.5 mg/kg iv, 5 h and 24 h after onset of ischemia",129 ± 16** mm^3
same,bleeding,"[1]; during Studies 1-4, 0.5-1.5 mg/kg iv, two administrations",No problem of bleeding was encountered
same,reduction of the cortical lesion,"[2]; 5 h and 24 h, vs control group",49%
same,CORTICAL LESION,"[2]; 5 h and 24 h after onset of ischemia, mean ± S.E.M.",71 ± 13* mm^3
